Assay results published in US20240058321A1, “FARNESYL-TRANSFERASE INHIBITORS AND KRAS INHIBITORS FOR TREATING KRAS MUTANT CANCERS” (SEMMELWEIS EGYETEM, priority 2021, published 2024).

How the values were obtained:
Assay in all cases: 2D combinational test (SRB growth inhibition, six days)
A549 = type: cell-based, human
Text: (§1) OD values were normalized to control. […] Data shown are results of three independent experiments.

HCT116 = type: cell-based, human
Text: as §1

SNUC2B = type: cell-based, human
Text: as §1

SW1990 = type: cell-based, human; conditions: SW1990
Text: as §1

SW480 = type: cell-based, human
Text: as §1

H358 = conditions: concentration range of 1-20 μM, data not shown
SW1573 = conditions: SW1573; concentration range of 1-20 μM; data not shown
H838 KRAS G12D = type: cell-based, human
Text: as §1

PF906 = type: cell-based, human
Text: as §1

[1] = 0 nM tipifarnib + 25 nM MRTX1133
[2] = 0 nM tipifarnib + 125 nM MRTX1133
[3] = 0 nM tipifarnib + 625 nM MRTX1133

Cn1cnc(Cn2ccc3ccc(CNCc4[nH]c5ccccc5c4[C@H]4NC(=O)c5ccc(O)cc54)cc32)c1 [BI2852]
Relative cell viability (MEAN) (A549; 0 nM TIPIFARNIB + 20 μM BI2852): 0.9541 | Relative cell viability (MEAN) (A549; 0 nM TIPIFARNIB + 30 μM BI2852): 0.8484 | Relative cell viability (MEAN) (A549; 0 nM TIPIFARNIB + 40 μM BI2852): 0.7576 | Relative cell viability (MEAN) (HCT116; 0 nM TIPIFARNIB + 10 μM BI2852): 0.846 | Relative cell viability (MEAN) (HCT116; 0 nM TIPIFARNIB + 20 μM BI2852): 0.7086 | Relative cell viability (MEAN) (HCT116; 0 nM TIPIFARNIB + 30 μM BI2852): 0.5907 | Relative cell viability (MEAN) (SNUC2B; 0 nM tipifarnib + 10 μM BI2852): 0.8372 | Relative cell viability (MEAN) (SNUC2B; 0 nM tipifarnib + 20 μM BI2852): 0.7477 | Relative cell viability (MEAN) (SNUC2B; 0 nM tipifarnib + 30 μM BI2852): 0.664 | Relative cell viability (MEAN) (SW1990; 0 nM tipifarnib + 10 μM BI2852): 0.9287 | Relative cell viability (MEAN) (SW1990; 0 nM tipifarnib + 20 μM BI2852): 0.8554 | Relative cell viability (MEAN) (SW1990; 0 nM tipifarnib + 30 μM BI2852): 0.8187 | Relative cell viability (MEAN) (SW480; 0 nM lonafarnib + 15 μM BI2852): 0.8064 | Relative cell viability (MEAN) (SW480; 0 nM lonafarnib + 20 μM BI2852): 0.6712 | Relative cell viability (MEAN) (SW480; 0 nM lonafarnib + 30 μM BI2852): 0.3888 | Relative cell viability (MEAN) (SW480; 0 nM tipifarnib + 5 μM BI2852): 0.9312 | Relative cell viability (MEAN) (SW480; 0 nM tipifarnib + 10 μM BI2852): 0.7461 | Relative cell viability (MEAN) (SW480; 0 nM tipifarnib + 15 μM BI2852): 0.5371

Cc1nc[nH]c1CN1CCN(C(=O)N[C@@H](CC(C)C)C(=O)O)[C@@H](Cc2ccccc2)C1=O [GGTI-2418]
Effect on tumor cell proliferation (in words) (H358): ineffective | Effect on tumor cell proliferation (in words) (SW1573): ineffective

C#Cc1c(F)ccc2cc(O)cc(-c3ncc4c(N5CC6CCC(C5)N6)nc(OC[C@@]56CCCN5C[C@H](F)C6)nc4c3F)c12 [MRTX1133]
Relative cell viability (MEAN) (H838 KRAS G12D; [1]): 0.8997 | Relative cell viability (MEAN) (H838 KRAS G12D; [2]): 0.7955 | Relative cell viability (MEAN) (H838 KRAS G12D; [3]): 0.6909 | Relative cell viability (MEAN) (PF906; [1]): 0.716 | Relative cell viability (MEAN) (PF906; [2]): 0.625 | Relative cell viability (MEAN) (PF906; [3]): 0.574 | Relative cell viability (MEAN) (SNUC2B; 0 nM tipifarnib + 50 nM MRTX1133): 0.739 | Relative cell viability (MEAN) (SNUC2B; 0 nM tipifarnib + 100 nM MRTX1133): 0.7023 | Relative cell viability (MEAN) (SNUC2B; 0 nM tipifarnib + 500 nM MRTX1133): 0.6567 | Relative cell viability (MEAN) (SW1990; 0 nM lonafarnib + 2.5 nM MRTX1133): 0.848 | Relative cell viability (MEAN) (SW1990; 0 nM lonafarnib + 5 nM MRTX1133): 0.7005 | Relative cell viability (MEAN) (SW1990; 0 nM lonafarnib + 10 nM MRTX1133): 0.5543 | Relative cell viability (MEAN) (SW1990; 0 nM tipifarnib + 2.5 nM MRTX1133): 0.7355 | Relative cell viability (MEAN) (SW1990; 0 nM tipifarnib + 5 nM MRTX1133): 0.5922 | Relative cell viability (MEAN) (SW1990; 0 nM tipifarnib + 10 nM MRTX1133): 0.4549
